# According to PubChem BioAssay (NCI):
#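 How tested: cells in 96-well plates exposed to compound for 48 hours at five concentrations. Here, GI50 denotes the concentration required for 50% inhibition of growth. TGI: total growth inhibition.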
# Key:
# Assay in all cases: growth of human tumour cells (NCI), 48 h
# 786-0 renal = tested on: 786-0 renal
# A498 renal = tested on: A498 renal
# A549 NSCLC = tested on: A549 NSCLC
# ACHN renal = tested on: ACHN renal
# BT-549 breast = tested on: BT-549 breast
# CAKI-1 renal = tested on: CAKI-1 renal
# CCRF-CEM leukemia = tested on: CCRF-CEM leukemia
# COLO 205 colon = tested on: COLO 205 colon
# DU-145 prostate = tested on: DU-145 prostate
# EKVX NSCLC = tested on: EKVX NSCLC
# HCC-2998 colon = tested on: HCC-2998 colon
# HCT-116 colon = tested on: HCT-116 colon
# HCT-15 colon = tested on: HCT-15 colon
# HL-60(TB) leukemia = tested on: HL-60(TB) leukemia
# HOP-62 NSCLC = tested on: HOP-62 NSCLC
# HOP-92 NSCLC = tested on: HOP-92 NSCLC
# HS 578T breast = tested on: HS 578T breast
# HT29 colon = tested on: HT29 colon
# IGROV1 ovarian = tested on: IGROV1 ovarian
# K-562 leukemia = tested on: K-562 leukemia
# KM12 colon = tested on: KM12 colon
# LOX IMVI melanoma = tested on: LOX IMVI melanoma
# M14 melanoma = tested on: M14 melanoma
# MALME-3M melanoma = tested on: MALME-3M melanoma
# MCF7 breast = tested on: MCF7 breast
# MDA-MB-231 breast = tested on: MDA-MB-231 breast
# MDA-MB-435 = tested on: MDA-MB-435
# MOLT-4 leukemia = tested on: MOLT-4 leukemia
# NCI-H226 lung = tested on: NCI-H226 lung
# NCI-H23 lung = tested on: NCI-H23 lung
# NCI-H460 lung = tested on: NCI-H460 lung
# NCI-H522 lung = tested on: NCI-H522 lung
# NCI/ADR-RES ovarian = tested on: NCI/ADR-RES ovarian
# OVCAR-3 ovarian = tested on: OVCAR-3 ovarian
# OVCAR-4 ovarian = tested on: OVCAR-4 ovarian
# OVCAR-5 ovarian = tested on: OVCAR-5 ovarian
# OVCAR-8 ovarian = tested on: OVCAR-8 ovarian
# PC-3 prostate = tested on: PC-3 prostate
# RXF 393 renal = tested on: RXF 393 renal
# SF-268 CNS = tested on: SF-268 CNS
# SF-295 CNS = tested on: SF-295 CNS
# SF-539 CNS = tested on: SF-539 CNS
# SK-MEL-2 melanoma = tested on: SK-MEL-2 melanoma
# SK-MEL-28 melanoma = tested on: SK-MEL-28 melanoma
# SK-MEL-5 melanoma = tested on: SK-MEL-5 melanoma
# SK-OV-3 ovarian = tested on: SK-OV-3 ovarian
# SN12C renal = tested on: SN12C renal
# SNB-19 CNS = tested on: SNB-19 CNS
# SNB-75 CNS = tested on: SNB-75 CNS
# SR leukemia = tested on: SR leukemia
# SW-620 colon = tested on: SW-620 colon
# T-47D breast = tested on: T-47D breast
# TK-10 renal = tested on: TK-10 renal
# U251 CNS = tested on: U251 CNS
# UACC-257 melanoma = tested on: UACC-257 melanoma
# UACC-62 melanoma = tested on: UACC-62 melanoma
# UO-31 renal = tested on: UO-31 renal
smiles,measurement,setting,value
CCCCCc1ccc(S(=O)(=O)Nc2cc(-c3csc(NC(C)=O)n3)ccc2N2CCN(C)CC2)cc1,GI50,786-0 renal,4.9 µM
same,TGI,786-0 renal,11.1 µM
same,GI50,A498 renal,6.23 µM
same,TGI,A498 renal,11.3 µM
same,GI50,A549 NSCLC,5.11 µM
same,TGI,A549 NSCLC,11.8 µM
same,GI50,ACHN renal,4.87 µM
same,TGI,ACHN renal,9.24 µM
same,GI50,BT-549 breast,4.98 µM
same,TGI,BT-549 breast,10.1 µM
same,GI50,CAKI-1 renal,4.84 µM
same,TGI,CAKI-1 renal,9.48 µM
same,GI50,CCRF-CEM leukemia,4.82 µM
same,TGI,CCRF-CEM leukemia,20.3 µM
same,GI50,COLO 205 colon,5.16 µM
same,TGI,COLO 205 colon,11.8 µM
same,GI50,DU-145 prostate,5.16 µM
same,TGI,DU-145 prostate,9.8 µM
same,GI50,EKVX NSCLC,5.65 µM
same,TGI,EKVX NSCLC,10.7 µM
same,GI50,HCC-2998 colon,1620 nM
same,TGI,HCC-2998 colon,5.47 µM
same,GI50,HCT-116 colon,1110 nM
same,TGI,HCT-116 colon,4.43 µM
same,GI50,HCT-15 colon,1080 nM
same,TGI,HCT-15 colon,4.49 µM
same,GI50,HL-60(TB) leukemia,1370 nM
same,TGI,HL-60(TB) leukemia,6.09 µM
same,GI50,HOP-62 NSCLC,5.51 µM
same,TGI,HOP-62 NSCLC,12.2 µM
same,GI50,HOP-92 NSCLC,3.68 µM
same,TGI,HOP-92 NSCLC,8.84 µM
same,GI50,HS 578T breast,5.12 µM
same,TGI,HS 578T breast,13.4 µM
same,GI50,HT29 colon,1990 nM
same,TGI,HT29 colon,8.29 µM
same,GI50,IGROV1 ovarian,4.67 µM
same,TGI,IGROV1 ovarian,9.46 µM
same,GI50,K-562 leukemia,1030 nM
same,TGI,K-562 leukemia,3.4 µM
same,GI50,KM12 colon,5.65 µM
same,TGI,KM12 colon,11 µM
same,GI50,LOX IMVI melanoma,648 nM
same,TGI,LOX IMVI melanoma,1350 nM
same,GI50,M14 melanoma,2000 nM
same,TGI,M14 melanoma,7.73 µM
same,GI50,MALME-3M melanoma,4.05 µM
same,TGI,MALME-3M melanoma,9.11 µM
same,GI50,MCF7 breast,1600 nM
same,TGI,MCF7 breast,6.45 µM
same,GI50,MDA-MB-231 breast,4.75 µM
same,TGI,MDA-MB-231 breast,9.91 µM
same,GI50,MDA-MB-435,4.85 µM
same,TGI,MDA-MB-435,9.5 µM
same,GI50,MOLT-4 leukemia,2430 nM
same,TGI,MOLT-4 leukemia,8.33 µM
same,GI50,NCI-H226 lung,4.94 µM
same,TGI,NCI-H226 lung,10.7 µM
same,GI50,NCI-H23 lung,4.78 µM
same,TGI,NCI-H23 lung,9.53 µM
same,GI50,NCI-H460 lung,4.77 µM
same,TGI,NCI-H460 lung,9.9 µM
same,GI50,NCI-H522 lung,6.35 µM
same,TGI,NCI-H522 lung,13 µM
same,GI50,NCI/ADR-RES ovarian,4.54 µM
same,TGI,NCI/ADR-RES ovarian,9.18 µM
same,GI50,OVCAR-3 ovarian,4.92 µM
same,TGI,OVCAR-3 ovarian,9.64 µM
same,GI50,OVCAR-4 ovarian,5.44 µM
same,TGI,OVCAR-4 ovarian,10.3 µM
same,GI50,OVCAR-5 ovarian,5 µM
same,TGI,OVCAR-5 ovarian,9.55 µM
same,GI50,OVCAR-8 ovarian,5.82 µM
same,TGI,OVCAR-8 ovarian,13.1 µM
same,GI50,PC-3 prostate,2230 nM
same,TGI,PC-3 prostate,7.72 µM
same,GI50,RXF 393 renal,3.66 µM
same,TGI,RXF 393 renal,8 µM
same,GI50,SF-268 CNS,5.52 µM
same,TGI,SF-268 CNS,11.6 µM
same,GI50,SF-295 CNS,4.9 µM
same,TGI,SF-295 CNS,9.59 µM
same,GI50,SF-539 CNS,4.98 µM
same,TGI,SF-539 CNS,9.63 µM
same,GI50,SK-MEL-2 melanoma,5.76 µM
same,TGI,SK-MEL-2 melanoma,12.6 µM
same,GI50,SK-MEL-28 melanoma,3.46 µM
same,TGI,SK-MEL-28 melanoma,7.49 µM
same,GI50,SK-MEL-5 melanoma,5.28 µM
same,TGI,SK-MEL-5 melanoma,9.79 µM
same,GI50,SK-OV-3 ovarian,5.95 µM
same,TGI,SK-OV-3 ovarian,11.5 µM
same,GI50,SN12C renal,4.7 µM
same,TGI,SN12C renal,9.25 µM
same,GI50,SNB-19 CNS,5.49 µM
same,TGI,SNB-19 CNS,10.4 µM
same,GI50,SNB-75 CNS,3.67 µM
same,TGI,SNB-75 CNS,7.98 µM
same,GI50,SR leukemia,929 nM
same,TGI,SR leukemia,2770 nM
same,GI50,SW-620 colon,1310 nM
same,TGI,SW-620 colon,4.72 µM
same,GI50,T-47D breast,4.8 µM
same,TGI,T-47D breast,11.7 µM
same,GI50,TK-10 renal,6.09 µM
same,TGI,TK-10 renal,11.7 µM
same,GI50,U251 CNS,3.78 µM
same,TGI,U251 CNS,8.93 µM
same,GI50,UACC-257 melanoma,4.48 µM
same,TGI,UACC-257 melanoma,11.4 µM
same,GI50,UACC-62 melanoma,3.83 µM
same,TGI,UACC-62 melanoma,8.04 µM
same,GI50,UO-31 renal,3.53 µM
same,TGI,UO-31 renal,7.57 µM
